Among the test systems are Escherichia coli; Listeria innocua; Micrococcus luteus A270; Escherichia coli ML-35p; Escherichia coli BL21; Escherichia coli MG1655.
Holding throughout (assay): ≥ marks a high value that may be exact or a test limit, other limits are often not marked, values filed in µg/mL are converted to µM
Experiment [1] has as its system Candida albicans NCPF 1467.
The test system of experiment [2] is Escherichia coli NCTC 10418.
Experiment [3] deals with Staphylococcus aureus NCTC 10788.
The test system of experiment [4] is Candida albicans ATCC 2002.
Experiment [5] concerns Escherichia coli ATCC 25922.
Experiment [6] has as its system Pseudomonas aeruginosa ATCC 9027.
In experiment [7] the test system is Staphylococcus aureus ATCC 12493.
The test system of experiment [8] is Staphylococcus aureus ATCC 2592.
Experiment [9] relates to Salmonella enterica subsp. enterica serovar Enteritidis.
Experiment [10] concerns Staphylococcus aureus ATCC 25923.
The test system of experiment [11] is Enterococcus faecalis ATCC 29212.
Experiment [12] concerns Pseudomonas aeruginosa ATCC 27853.
Experiment [13] has as its system Staphylococcus aureus ATCC BAA-44.
Experiment [14] concerns Staphylococcus epidermidis.
Experiment [15] has as its system Cronobacter muytjensii ATCC 51329.
Experiment [16] has as its system Cronobacter sakazakii ATCC BAA-894.
The test system of experiment [17] is Cronobacter sakazakii DPC 6440.
Experiment [18] relates to Cronobacter sakazakii DSM 4485.
Experiment [19] concerns Escherichia coli NCIMB 11843.
Experiment [20] relates to Klebsiella pneumoniae NCIMB 13218.
Experiment [21] has as its system Pseudomonas fluorescens NCIMB 9046.
In experiment [22] the test system is Salmonella enterica subsp. enterica serovar Typhimurium LT2.
For experiment [23], the system named is Staphylococcus aureus NCTC 8325-4.
Experiment [24] concerns Staphylococcus aureus Newman.
Experiment [25] relates to Staphylococcus aureus RF122.
Experiment [26] has as its system Staphylococcus aureus RN4220.
The subject of experiment [27] is Staphylococcus aureus SA113.

One may read the MIC as the least concentration at which growth counts as inhibited. Read a high MIC as weaker potency.

In brackets after ≈: the same amount, converted by molar mass. Bounds are passed on as bounds.

In the case of `CC[C@H](C)[C@H](NC(=O)[C@H](C)NC(=O)[C@H](CO)NC(=O)[C@@H]1CCCN1C(=O)[C@@H](NC(=O)[C@H](CC(C)C)NC(=O)[C@H](CO)NC(=O)[C@H](Cc1ccccc1)NC(=O)[C@H](CC(C)C)NC(=O)[C@@H](N)Cc1ccccc1)[C@@H](C)CC)C(=O)N[C@@H](C)C(=O)NCC(=O)N[C@@H](CC(C)C)C(=O)N[C@H](C(=O)N[C@@H](CO)C(=O)N[C@@H](C)C(=O)N[C@H](C(=O)N[C@@H](CCCN=C(N)N)C(=O)N[C@@H](CC(N)=O)C(N)=O)[C@@H](C)CC)C(C)C` [FLFSLIPSAIAGLVSAIRN], the MIC is 16.1 µM (≈ 32 µg/mL) in [1], at least 257 µM in experiment [2] and 8.04 µM (≈ 16 µg/mL) in [3].

Turning to `CC(C)C[C@H](NC(=O)[C@H](CC(C)C)NC(=O)[C@H](CC(C)C)NC(=O)[C@@H]1CCCN1C(=O)[C@H](CC(C)C)NC(=O)[C@@H](N)Cc1ccccc1)C(=O)N[C@@H](CO)C(=O)N[C@@H](C)C(=O)N[C@@H](CC(C)C)C(=O)N1CCC[C@H]1C(=O)N[C@@H](CO)C(=O)N[C@@H](Cc1ccccc1)C(=O)N[C@@H](CC(C)C)C(=O)N[C@H]1CSSC[C@@H](C(=O)O)NC(=O)[C@H](CCCCN)NC(=O)[C@H](CCCCN)NC(=O)[C@H](Cc2ccccc2)NC(=O)[C@H](C(C)C)NC(=O)[C@H](CC(C)C)NC1=O` [FLPLLLSALPSFLCLVFKKC], the MIC in experiment [4] was at least 44 µM; in experiment [1], at least 512 µM; in experiment [5] it was 33 µM (≈ 74.3 µg/mL); in experiment [2] it was at least 512 µM; in experiment [6], above 44 µM; in experiment [7], at least 512 µM. Further, the figures for the MIC in experiment [8] and in experiment [3] were 17 µM (≈ 38.3 µg/mL) and at least 32 µM, respectively.

Turning to `CC(C)C[C@H](NC(=O)[C@@H](N)Cc1ccccc1)C(=O)N[C@@H](CO)C(=O)N[C@@H](Cc1ccccc1)C(=O)N1CCC[C@H]1C(=O)N[C@H](C(=O)N[C@H](C(=O)N[C@@H](CCCCN)C(=O)N[C@H](C(=O)N[C@@H](Cc1ccc(O)cc1)C(=O)N[C@@H](Cc1ccccc1)C(=O)N1CCC[C@H]1C(=O)N[C@@H](Cc1cnc[nH]1)C(=O)N[C@@H](Cc1ccccc1)C(=O)O)[C@@H](C)O)[C@@H](C)O)[C@@H](C)O` [FLSFPTTKTYFPHF], the minimum inhibitory concentration (MIC) stood at 9 µM (≈ 15.6 µg/mL) with Escherichia coli, 1 µM (≈ 1.73 µg/mL) with Listeria innocua, 5 µM (≈ 8.67 µg/mL) against Micrococcus luteus A270 and 9 µM (≈ 15.6 µg/mL) in experiment [9].

Take `CC(C)C[C@H](NC(=O)[C@H](C)NC(=O)[C@H](CC(C)C)NC(=O)[C@H](CO)NC(=O)[C@H](CC(C)C)NC(=O)[C@@H](N)Cc1ccccc1)C(=O)N[C@@H](C)C(=O)N[C@@H](C)C(=O)N[C@@H](CC(C)C)C(=O)N1CCC[C@H]1C(=O)N[C@@H](CCCCN)C(=O)N[C@@H](Cc1ccccc1)C(=O)N[C@@H](CC(C)C)C(=O)N[C@H]1CSSC[C@@H](C(=O)O)NC(=O)[C@H](CCCCN)NC(=O)[C@H](CCCCN)NC(=O)[C@H](Cc2ccccc2)NC(=O)[C@H](C(C)C)NC(=O)[C@H](CC(C)C)NC1=O` [FLSLALAALPKFLCLVFKKC]: the MIC is at least 32 µM in experiment [1]; 15 µM (≈ 33.4 µg/mL) in experiment [5]; at least 512 µM in experiment [2]; at least 32 µM in experiment [7]; 15 µM (≈ 33.4 µg/mL) in experiment [10]; at least 32 µM in [3].

On to `CC[C@H](C)[C@H](NC(=O)CN)C(=O)N[C@@H](CCCCN)C(=O)N[C@@H](CC(=O)O)C(=O)N[C@@H](CC(C)C)C(=O)N[C@@H](CC(C)C)C(=O)N[C@@H](CCCCN)C(=O)NCC(=O)N[C@@H](C)C(=O)N[C@@H](C)C(=O)N[C@@H](CCCCN)C(=O)N[C@@H](C)C(=O)N[C@@H](CC(C)C)C(=O)N[C@H](C(=O)N[C@@H](CCCCN)C(=O)N[C@H](C(=O)N[C@H](C(=O)N[C@@H](CC(C)C)C(=O)N[C@@H](CCCCN)C(N)=O)C(C)C)[C@@H](C)O)C(C)C` [GIKDLLKGAAKALVKTVLK], for which the MIC came to 50 µM (≈ 98.3 µg/mL) in experiment [11]; 1.7 µM (≈ 3.34 µg/mL) in experiment [5]; 12.5 µM (≈ 24.6 µg/mL) with Escherichia coli ML-35p; 25 µM (≈ 49.1 µg/mL) in [12]; 4.7 µM (≈ 9.24 µg/mL) in [10]; 6.3 µM (≈ 12.4 µg/mL) in experiment [13].

As for `CC[C@H](C)[C@H](NC(=O)[C@H](CCCCN)NC(=O)[C@H](CCCN=C(N)N)NC(=O)[C@H](CCCCN)NC(=O)[C@H](CCCCN)NC(=O)[C@H](CCCCN)NC(=O)[C@H](Cc1c[nH]c2ccccc12)NC(=O)[C@H](CCCCN)NC(=O)[C@H](CC(C)C)NC(=O)[C@H](CO)NC(=O)[C@H](Cc1ccccc1)NC(=O)[C@H](CCCN=C(N)N)NC(=O)[C@H](CC(=O)O)NC(=O)[C@H](CCSC)NC(C)=O)C(=O)N[C@@H](CCCN=C(N)N)C(=O)N[C@@H](CCCN=C(N)N)C(=O)N[C@@H](CCCN=C(N)N)C(=O)N[C@@H](CCCN=C(N)N)C(=O)N[C@@H](CCCN=C(N)N)C(=O)N[C@@H](CCCN=C(N)N)C(=O)N[C@@H](CCCN=C(N)N)C(=O)N[C@@H](CCCN=C(N)N)C(=O)N[C@@H](CCCN=C(N)N)C(=O)N[C@@H](CCCN=C(N)N)C(=O)N[C@@H](CCCN=C(N)N)C(N)=O` [MDRFSLKWKKKRKIRRRRRRRRRRR], the MIC in the experiment with Escherichia coli BL21 was determined as 4 µM (≈ 14.5 µg/mL); in the experiment on Escherichia coli MG1655 it was 7.5 µM (≈ 27.2 µg/mL); in experiment [14], 3 µM (≈ 10.9 µg/mL).

Compound `CC[C@H](C)[C@H](NC(=O)[C@H](CCCCN)NC(=O)CNC(=O)[C@H](CC(C)C)NC(=O)[C@H](Cc1ccccc1)NC(=O)[C@H](CCC(N)=O)NC(=O)[C@H](Cc1ccccc1)NC(=O)[C@@H](N)C(C)C)C(=O)N[C@H](C(=O)N[C@@H](Cc1cnc[nH]1)C(=O)N[C@@H](Cc1cnc[nH]1)C(=O)N[C@H](C(=O)NCC(=O)N[C@@H](CC(N)=O)C(=O)N[C@@H](Cc1ccccc1)C(=O)N[C@H](C(=O)N[C@@H](Cc1cnc[nH]1)C(=O)NCC(=O)N[C@@H](Cc1ccccc1)C(=O)N[C@@H](CO)C(=O)N[C@@H](C)C(=O)N[C@H](C(=O)N[C@@H](Cc1ccccc1)C(N)=O)C(C)C)C(C)C)C(C)C)[C@@H](C)CC` [VFQFLGKIIHHVGNFVHGFSAVF] registered an MIC in the experiment with Escherichia coli MG1655 of at least 64 µM.

`CC(C)C[C@H](NC(=O)[C@H](CC(N)=O)NC(=O)[C@H](CCC(=O)O)NC(=O)[C@H](CC(N)=O)NC(=O)[C@H](CC(C)C)NC(=O)[C@@H](N)C(C)C)C(=O)N[C@@H](C)C(=O)N[C@@H](CCCN=C(N)N)C(=O)O` [VLNENLAR]: the MIC in [15] was at least 2500 µM; in experiment [16], at least 2500 µM; in experiment [17], at least 625 µM; in experiment [18], at least 2500 µM; in experiment [19] it was at least 1250 µM; in experiment [20] it was at least 1250 µM. Moreover, the MIC in [21] is at least 1250 µM; in experiment [22] it was at least 2500 µM; in experiment [23], at least 625 µM; in [24], at least 1250 µM; in experiment [25], at least 1250 µM; in [26], at least 1250 µM. In experiment [27], this compound showed an MIC of at least 625 µM.

Source of the values: DBAASP.
